Experimental data published in the NIST ThermoML archive (doi:10.1021/je700344f).
Values joined by “and” are separate entries in the source; they are usually repeats but may differ in a detail not shown here. Equal entries are not always repeated. ± gives the expanded uncertainty stated by the source.

Experiments:
[1] = 101.33 kPa, Liquid
[2] = xn = mol fraction of the nth substance listed; settings: 101 kPa, Liquid

C1COCCO1 [1,4-dioxane]
[1]
Settings | mass density [kg/m3] | viscosity [mPa·s]
283.15 K | 1046.91 ± 3.4 | 1.59 ± 0.11
293.15 K | 1035.03 ± 3.1 | 1.312 ± 0.094
303.15 K | 1022.71 ± 2.8 | 1.102 ± 0.081
313.15 K | 1011.32 ± 2.5 | 0.946 ± 0.071
323.15 K | 999.12 ± 2.2 | 0.825 ± 0.063
333.15 K | 987.92 ± 2.5 | 0.721 ± 0.056
343.15 K | 976.61 ± 2.8 | 0.64 ± 0.051

CN(C)c1ccccc1 [N,N-dimethylaniline]
[1]
Settings | mass density [kg/m3] | viscosity [mPa·s]
283.15 K | 969.97 ± 2.9 | 1.696 ± 0.12
293.15 K | 963.01 ± 3.1 | 1.439 ± 0.1
303.15 K | 956.21 ± 3.3 | 1.17 ± 0.085
313.15 K | 948.34 ± 3.5 | 0.981 ± 0.073
323.15 K | 940.24 ± 3.7 | 0.928 ± 0.07
333.15 K | 932.71 ± 3.9 | 0.911 ± 0.068
343.15 K | 924.08 ± 4.1 | 0.841 ± 0.064

CCCCCCO [hexan-1-ol]
[1]
Settings | mass density | viscosity
283.15 K | 828.23 ± 6.5 kg/m3 | 7.459 ± 0.44 mPa·s
293.15 K | 821.01 ± 6.7 kg/m3 | 5.335 ± 0.34 mPa·s
303.15 K | 815.92 ± 6.8 kg/m3 and 813.96 ± 6.9 kg/m3 | 3.763 ± 0.25 mPa·s and 3.917 ± 0.26 mPa·s
313.15 K | 810.91 ± 7 kg/m3 | 2.937 ± 0.2 mPa·s
323.15 K | 806.84 ± 7 kg/m3 and 804.22 ± 7.1 kg/m3 | 2.172 ± 0.15 mPa·s and 2.276 ± 0.16 mPa·s
333.15 K | 802.91 ± 7.2 kg/m3 | 1.654 ± 0.12 mPa·s
343.15 K | 798.64 ± 7.3 kg/m3 | 1.411 ± 0.1 mPa·s

CCCCCCO [hexan-1-ol] + C1COCCO1
[2]
Settings | mass density [kg/m3] | viscosity [mPa·s]
283.15 K, x2 = 0.1835 | 860.24 ± 5.6 | 4.488 ± 0.3
283.15 K, x2 = 0.2675 | 873.31 ± 5.3 | 3.52 ± 0.23
283.15 K, x2 = 0.385 | 896.72 ± 4.7 | 2.785 ± 0.19
283.15 K, x2 = 0.4933 | 916.23 ± 4.2 | 2.324 ± 0.16
283.15 K, x2 = 0.5935 | 938.47 ± 3.7 | 2.007 ± 0.14
283.15 K, x2 = 0.6866 | 957.86 ± 3.2 | 1.815 ± 0.13
283.15 K, x2 = 0.7731 | 981.11 ± 2.6 | 1.691 ± 0.12
283.15 K, x2 = 0.8795 | 1013.54 ± 2.5 | 1.601 ± 0.11
293.15 K, x2 = 0.1835 | 853.33 ± 5.8 | 3.221 ± 0.22
293.15 K, x2 = 0.2675 | 865.64 ± 5.5 | 2.707 ± 0.18
293.15 K, x2 = 0.385 | 889.2 ± 4.9 | 2.184 ± 0.15
293.15 K, x2 = 0.4933 | 903.63 ± 4.6 | 1.845 ± 0.13
293.15 K, x2 = 0.5935 | 929.82 ± 3.9 | 1.626 ± 0.11
293.15 K, x2 = 0.6866 | 951.11 ± 3.4 | 1.554 ± 0.11
293.15 K, x2 = 0.7731 | 973.8 ± 2.8 | 1.395 ± 0.1
293.15 K, x2 = 0.8795 | 1002.74 ± 2.2 | 1.311 ± 0.094
303.15 K, x2 = 0.1835 | 845.02 ± 6 | 2.632 ± 0.18
303.15 K, x2 = 0.2675 | 857.53 ± 5.7 | 2.121 ± 0.15
303.15 K, x2 = 0.385 | 879.87 ± 5.1 | 1.748 ± 0.12
303.15 K, x2 = 0.4933 | 898.36 ± 4.7 | 1.506 ± 0.11
303.15 K, x2 = 0.5935 | 920.31 ± 4.2 | 1.339 ± 0.096
303.15 K, x2 = 0.6866 | 941.43 ± 3.6 | 1.238 ± 0.089
303.15 K, x2 = 0.7731 | 963.84 ± 3.1 | 1.173 ± 0.085
303.15 K, x2 = 0.8795 | 990.21 ± 2.4 | –
313.15 K, x2 = 0.1835 | 836.88 ± 6.2 | 2.285 ± 0.16
313.15 K, x2 = 0.2675 | 849.44 ± 5.9 | 1.705 ± 0.12
313.15 K, x2 = 0.385 | 871.16 ± 5.4 | 1.431 ± 0.1
313.15 K, x2 = 0.4933 | 889.72 ± 4.9 | 1.254 ± 0.091
313.15 K, x2 = 0.5935 | 909.94 ± 4.4 | 1.127 ± 0.082
313.15 K, x2 = 0.6866 | 931.85 ± 3.9 | 1.053 ± 0.078
313.15 K, x2 = 0.7731 | 953.63 ± 3.3 | 1.002 ± 0.074
313.15 K, x2 = 0.8795 | 980.82 ± 2.6 | 0.965 ± 0.072
323.15 K, x2 = 0.1835 | 829.74 ± 6.4 | 1.699 ± 0.12
323.15 K, x2 = 0.2675 | 841.13 ± 6.1 | 1.403 ± 0.1
323.15 K, x2 = 0.385 | 864.56 ± 5.5 | 1.196 ± 0.087
323.15 K, x2 = 0.4933 | 880.42 ± 5.1 | 1.056 ± 0.078
323.15 K, x2 = 0.5935 | 900.9 ± 4.6 | 0.964 ± 0.072
323.15 K, x2 = 0.6866 | 921.84 ± 4.1 | 0.907 ± 0.068
323.15 K, x2 = 0.7731 | 943.38 ± 3.6 | 0.869 ± 0.066
323.15 K, x2 = 0.8795 | 971.57 ± 2.9 | 0.843 ± 0.064
333.15 K, x2 = 0.1835 | 821.17 ± 6.6 | 1.289 ± 0.093
333.15 K, x2 = 0.2675 | 833.54 ± 6.3 | 1.16 ± 0.084
333.15 K, x2 = 0.385 | 856.26 ± 5.7 | 1.012 ± 0.075
333.15 K, x2 = 0.4933 | 869.91 ± 5.4 | 0.903 ± 0.068
333.15 K, x2 = 0.5935 | 890.93 ± 4.9 | 0.839 ± 0.064
333.15 K, x2 = 0.6866 | 911.92 ± 4.4 | 0.792 ± 0.061
333.15 K, x2 = 0.7731 | 933.31 ± 3.8 | 0.763 ± 0.059
333.15 K, x2 = 0.8795 | 958.09 ± 3.2 | 0.742 ± 0.057
343.15 K, x2 = 0.1835 | 815.14 ± 6.8 | 1.074 ± 0.079
343.15 K, x2 = 0.2675 | 824.52 ± 6.5 | 0.975 ± 0.073
343.15 K, x2 = 0.385 | 843.77 ± 6 | 0.863 ± 0.065
343.15 K, x2 = 0.4933 | 862.93 ± 5.6 | 0.786 ± 0.06
343.15 K, x2 = 0.5935 | 881.04 ± 5.1 | 0.732 ± 0.057
343.15 K, x2 = 0.6866 | 905.05 ± 4.5 | 0.748 ± 0.058
343.15 K, x2 = 0.7731 | 923.91 ± 4.1 | 0.678 ± 0.053
343.15 K, x2 = 0.8795 | 947.05 ± 3.5 | 0.662 ± 0.052
